In ChEMBL document CHEMBL3745613, “Fragment-assisted hit investigation involving integrated HTS and fragment screening: Application to the identification of phosphodiesterase 10A (PDE10A) inhibitors” (Bioorg Med Chem Lett, 2016):
In brackets after ≈: the same amount, converted by molar mass.

Columns and labels:
[1] = Equilibrium solubility of the compound in phosphate buffer at pH 7.4; format: physicochemical
[2] = target: T1, cAMP and cAMP-inhibited cGMP 3',5'-cyclic phosphodiesterase 10A (Homo sapiens, UniProt Q9Y233); assay: Inhibition of human recombinant PDE10A using cAMP as substrate preincubated for 20 mins followed by substrate addition measured after 2 hrs by FRET assay
T1 sequence (Q9Y233 whole entry): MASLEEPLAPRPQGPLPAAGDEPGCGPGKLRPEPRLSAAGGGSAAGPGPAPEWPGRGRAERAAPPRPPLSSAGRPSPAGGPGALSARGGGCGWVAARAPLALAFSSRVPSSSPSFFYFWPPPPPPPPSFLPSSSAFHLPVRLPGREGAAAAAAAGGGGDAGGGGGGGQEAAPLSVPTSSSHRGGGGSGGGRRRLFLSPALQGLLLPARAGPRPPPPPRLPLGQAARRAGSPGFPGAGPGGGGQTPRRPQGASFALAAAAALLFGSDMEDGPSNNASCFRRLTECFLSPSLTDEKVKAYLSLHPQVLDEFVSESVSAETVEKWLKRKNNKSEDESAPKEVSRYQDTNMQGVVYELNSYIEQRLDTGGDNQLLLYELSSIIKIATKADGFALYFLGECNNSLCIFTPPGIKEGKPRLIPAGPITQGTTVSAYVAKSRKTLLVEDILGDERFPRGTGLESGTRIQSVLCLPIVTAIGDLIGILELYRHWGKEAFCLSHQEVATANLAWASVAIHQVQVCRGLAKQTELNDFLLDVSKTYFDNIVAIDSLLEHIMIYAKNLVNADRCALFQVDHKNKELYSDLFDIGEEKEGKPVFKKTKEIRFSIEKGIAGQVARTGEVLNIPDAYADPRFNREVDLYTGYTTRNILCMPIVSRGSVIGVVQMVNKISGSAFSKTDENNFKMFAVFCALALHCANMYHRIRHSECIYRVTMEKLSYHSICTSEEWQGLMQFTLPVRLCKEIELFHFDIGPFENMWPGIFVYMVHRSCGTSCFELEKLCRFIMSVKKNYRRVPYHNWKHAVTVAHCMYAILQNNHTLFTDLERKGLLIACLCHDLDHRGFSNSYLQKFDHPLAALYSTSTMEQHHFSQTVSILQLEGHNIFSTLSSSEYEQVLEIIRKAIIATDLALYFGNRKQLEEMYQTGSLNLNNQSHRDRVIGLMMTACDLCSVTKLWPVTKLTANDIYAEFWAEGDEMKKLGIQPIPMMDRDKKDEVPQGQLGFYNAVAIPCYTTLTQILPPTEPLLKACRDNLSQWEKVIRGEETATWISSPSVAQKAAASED

[3] = target: cGMP-dependent 3',5'-cyclic phosphodiesterase (Homo sapiens, UniProt O00408); assay: Inhibition of human recombinant PDE2A using cAMP as substrate preincubated for 20 mins followed by substrate addition measured after 2 hrs by FRET assay
cGMP-dependent 3',5'-cyclic phosphodiesterase, sequence (O00408 whole entry): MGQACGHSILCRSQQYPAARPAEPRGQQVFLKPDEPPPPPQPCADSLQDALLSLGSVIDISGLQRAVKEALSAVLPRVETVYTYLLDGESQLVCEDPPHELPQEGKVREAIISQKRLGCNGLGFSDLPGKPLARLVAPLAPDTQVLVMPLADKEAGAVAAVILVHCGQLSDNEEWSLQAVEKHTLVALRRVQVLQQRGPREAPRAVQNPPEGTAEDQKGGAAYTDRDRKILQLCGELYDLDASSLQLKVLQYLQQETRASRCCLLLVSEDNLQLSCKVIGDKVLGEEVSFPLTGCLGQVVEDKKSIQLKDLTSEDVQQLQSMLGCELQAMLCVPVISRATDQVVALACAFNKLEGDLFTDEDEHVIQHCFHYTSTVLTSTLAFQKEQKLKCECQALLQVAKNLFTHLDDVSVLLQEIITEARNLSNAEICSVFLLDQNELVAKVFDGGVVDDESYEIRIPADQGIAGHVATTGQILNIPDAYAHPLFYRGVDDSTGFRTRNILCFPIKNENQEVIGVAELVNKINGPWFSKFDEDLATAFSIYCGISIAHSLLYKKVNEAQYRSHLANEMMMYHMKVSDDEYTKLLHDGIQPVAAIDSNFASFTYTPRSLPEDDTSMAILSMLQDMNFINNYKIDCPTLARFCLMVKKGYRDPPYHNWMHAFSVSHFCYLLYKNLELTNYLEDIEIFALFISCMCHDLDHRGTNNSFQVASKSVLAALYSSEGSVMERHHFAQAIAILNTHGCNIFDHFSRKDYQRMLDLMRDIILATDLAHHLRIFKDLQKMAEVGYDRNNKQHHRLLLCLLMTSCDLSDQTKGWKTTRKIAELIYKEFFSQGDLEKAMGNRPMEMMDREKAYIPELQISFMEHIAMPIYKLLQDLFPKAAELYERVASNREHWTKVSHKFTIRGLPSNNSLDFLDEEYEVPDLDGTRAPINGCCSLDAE

[4] = target: T1, cAMP and cAMP-inhibited cGMP 3',5'-cyclic phosphodiesterase 10A; assay: Inhibition of human recombinant PDE10A using cAMP as substrate at 30 uM preincubated for 20 mins followed by substrate addition measured after 2 hrs by FRET assay
[5] = target: T1, cAMP and cAMP-inhibited cGMP 3',5'-cyclic phosphodiesterase 10A; assay: Binding affinity to human recombinant PDE10A after 15 mins by surface plasmon resonance assay

Row | solubility thermodynamic [1] [µM] | IC50 [2] [nM] | IC50 [3] [nM] | inhibition [4] [%] | IC50 [5] [nM] | Structure (SMILES)
1 | < 1 | 120 | – | – | – | Cn1c(-c2cnc(NC(=O)c3cccc(C#N)c3)s2)nc2ccccc21
2 | < 1 | 16 | > 100000 | – | – | Cc1c(Cl)cccc1C(=O)Nc1ncc(-c2nc3ccccc3n2C)s1
3 | – | > 30000 | – | 23 | – | CS(=O)(=O)c1cccc(C(=O)Nc2cc(-c3nc4ccccc4[nH]3)[nH]n2)c1
4 | – | – | – | – | 324000 | Cc1csc(-c2ccccn2)n1

Continued, compound first:

Row | Structure (SMILES) | solubility thermodynamic [1] [µM] | IC50 [2] [nM] | IC50 [3] [nM] | inhibition [4] [%] | IC50 [5] [nM]
5 | Cc1cccc(C(=O)Nc2cc(-c3nc4ccccc4[nH]3)[nH]n2)c1Cl | < 1 | 280 | – | – | –
6 | Cc1nocc1C(=O)Nc1cc(-c2nc3ccccc3[nH]2)[nH]n1 | 2 (≈ 0.617 µg/mL) | 3800 | – | – | –
7 | Cc1c(Cl)cccc1C(=O)Nc1cc(-c2nc3ccccc3[nH]2)[nH]n1 | < 1 | 100 | > 100000 | – | –
8 | N#Cc1cccc(C(=O)Nc2ncc(-c3nc4ccccc4n3CCN)s2)c1 | 13 (≈ 5.05 µg/mL) | 490 | – | – | –
9 | N#Cc1cccc(C(=O)Nc2ncc(-c3nc4ccccc4[nH]3)s2)c1 | 1 (≈ 0.345 µg/mL) | 110 | > 100000 | – | –
10 | Cc1cc(-c2ccco2)[nH]n1 | – | – | – | – | 851000
